Experimental data: ChEMBL document CHEMBL3727346, “6-(pyridinyl)-4-pyrimidone derivates as tau protein kinase 1 inhibitors” (2011)
The source made the active and inactive calls. The rule behind the calls is not given here.

Target: Glycogen synthase kinase-3 beta splice variant X1 (Bos taurus) (UniProt A0A059UE90)
Test: Inhibition of bovine cerebral TPK1 assessed as reduction in P-GS1 phosphorylation using [32gammaP]ATP incubated for 2 hrs by liquid scintillation counting method

| SMILES | inhibition |
| --- | --- |
| Cn1c(N2CCO[C@@H](c3ccc(N(CCO)C4CCCCC4)cc3)C2)nc(-c2ccncc2F)cc1=O | Active |
| Cn1c(N2CCO[C@@H](c3ccc(CO)cc3)C2)nc(-c2ccncc2F)cc1=O | Active |
| Cn1c(N2CCO[C@@H](c3c(F)cccc3Cl)C2)nc(-c2ccncc2F)c(F)c1=O | Active |
| Cn1c(N2CCO[C@@H](c3ccc(N(CC(F)(F)F)CC(F)(F)F)cc3)C2)nc(-c2ccncc2F)cc1=O | Active |
| CN(C)CCCOc1ccc([C@H]2CN(c3nc(-c4ccncc4F)cc(=O)n3C)CCO2)cc1 | Active |
| COc1ccc(C#N)cc1[C@H]1CN(c2nc(-c3ccncc3F)cc(=O)n2C)CCO1 | Active |
| Cn1c(N2CCO[C@@H](c3ccc(N(c4ccccn4)c4ccccn4)cc3)C2)nc(-c2ccncc2F)cc1=O | Active |
| CN1CCN(CCCOc2ccc([C@H]3CN(c4nc(-c5ccncc5F)cc(=O)n4C)CCO3)cc2)CC1 | Active |
| CCN(CC)c1ccc([C@H]2CN(c3nc(-c4ccncc4F)cc(=O)n3C)CCO2)cc1 | Active |
| Cn1c(N2CCO[C@@H](c3ccc(F)c(N)c3)C2)nc(-c2ccncc2F)cc1=O | Active |
| Cn1c(N2CCO[C@@H](c3ccc(NC45CC6CC(CC(C6)C4)C5)cc3)C2)nc(-c2ccncc2F)cc1=O | Active |
| COc1cc(N(C)C)ccc1[C@H]1CN(c2nc(-c3ccncc3F)cc(=O)n2C)CCO1 | Active |
| Cn1c(N2CCO[C@@H](c3ccc(NC(=O)C(C)(C)O)cc3)C2)nc(-c2ccncc2F)cc1=O | Active |
| Cn1c(N2CCO[C@@H](c3cccc(NS(C)(=O)=O)c3)C2)nc(-c2ccncc2F)cc1=O | Active |
| Cn1c(N2CCOC(c3ccc4c(c3)CC(=O)N4)C2)nc(-c2ccncc2F)cc1=O (racemic) | Active |
| CN(C)C(=O)c1ccc([C@H]2CN(c3nc(-c4ccncc4F)cc(=O)n3C)CCO2)cc1 | Active |
| Cn1c(N2CCO[C@@H](c3ccc(N(C4CCCCC4)S(=O)(=O)c4ccccc4)cc3)C2)nc(-c2ccncc2F)cc1=O | Active |
| COc1ccc(NS(C)(=O)=O)cc1[C@H]1CN(c2nc(-c3ccncc3F)cc(=O)n2C)CCO1 | Active |
| Cn1c(N2CCO[C@@H](c3ccc(NC(=O)CN4CCOCC4)cc3)C2)nc(-c2ccncc2F)cc1=O | Active |
| CCCCOc1ccc(-c2ccc([C@H]3CN(c4nc(-c5ccncc5F)cc(=O)n4C)CCN3)cc2)cc1 | Active |
| CCN(CC)C(=O)Nc1ccc([C@H]2CN(c3nc(-c4ccncc4F)cc(=O)n3C)CCO2)cc1 | Active |
| Cn1c(N2CCOC(c3ccccc3OCCCN)C2)nc(-c2ccncc2F)cc1=O (stereo not drawn) | Active |
| Cn1c(N2CCO[C@@H](c3ccc(O)cc3)C2)nc(-c2ccncc2F)cc1=O | Active |
| Cn1c(N2CCO[C@@H](c3ccc(OCCCN4CCOCC4)cc3)C2)nc(-c2ccncc2F)cc1=O | Active |
| COc1ccc([C@H]2CN(c3nc(-c4ccncc4F)cc(=O)n3C)CCO2)cc1 | Active |
| CC(=O)N(c1ccc([C@H]2CN(c3nc(-c4ccncc4F)cc(=O)n3C)CCO2)cc1)C(C)C | Active |
| Cn1c(N2CCO[C@@H](c3ccc(Nc4ccncc4)cc3)C2)nc(-c2ccncc2F)cc1=O | Active |
| Cn1c(N2CCO[C@@H](c3ccc(NC4C5CC6CC(C5)CC4C6)cc3)C2)nc(-c2ccncc2F)cc1=O (stereo partly drawn) | Active |
| Cn1c(N2CCO[C@@H](c3ccc(N4CCc5ccccc54)cc3)C2)nc(-c2ccncc2F)cc1=O | Active |

The remaining lines, values ahead:

| inhibition | SMILES |
| --- | --- |
| Active | Cn1c(N2CCO[C@@H](c3ccc(N4CCC[C@H]5CCCC[C@@H]54)cc3)C2)nc(-c2ccncc2F)cc1=O |
| Active | Cn1c(N2CCN[C@@H](c3ccc(N4CC[C@H](N5CCCC5)C4)cc3)C2)nc(-c2ccncc2F)cc1=O |
| Active | Cn1c(N2CCO[C@@H](c3ccc(OC4CCCCC4)cc3)C2)nc(-c2ccncc2F)cc1=O |
| Active | Cn1c(N2CCO[C@@H](c3ccc(OCCN4CCCC4)cc3)C2)nc(-c2ccncc2F)cc1=O |
| Active | Cn1c(N2CCN[C@@H](c3ccc(-c4ccc(Cl)cc4Cl)cc3)C2)nc(-c2ccncc2F)cc1=O |
| Active | CN1CCN(c2ccc([C@H]3CN(c4nc(-c5ccncc5F)cc(=O)n4C)CCO3)cc2)CC1 |
| Active | CC(=O)N(C)[C@@H]1CCN(c2ccc([C@H]3CN(c4nc(-c5ccncc5F)cc(=O)n4C)CCO3)cc2)C1 |
| Active | Cn1c(N2CCO[C@@H](c3ccc(N4CCN(CCO)CC4)cc3)C2)nc(-c2ccncc2F)cc1=O |
| Active | CC(C)N1CCN(c2ccc([C@H]3CN(c4nc(-c5ccncc5F)cc(=O)n4C)CCN3)cc2)CC1 |
| Active | Cn1c(N2CCO[C@@H](c3ccc(N4CCCNC4=O)cc3)C2)nc(-c2ccncc2F)cc1=O |
| Active | Cn1c(N2CCO[C@@H](c3ccc(N4CCC4)cc3)C2)nc(-c2ccncc2F)cc1=O |
| Active | Cn1c(N2CCN[C@@H](c3ccc(N4CCC(N5CCCC5)CC4)cc3)C2)nc(-c2ccncc2F)cc1=O |
| Active | C[C@@H]1CN(c2ccc([C@H]3CN(c4nc(-c5ccncc5F)cc(=O)n4C)CCO3)cc2)C[C@H](C)O1 |
| Active | Cn1c(N2CCN[C@@H](c3ccc(N4CCC(N5CCCCC5)CC4)cc3)C2)nc(-c2ccncc2F)cc1=O |
| Active | CN(C)[C@H]1CCN(c2ccc([C@H]3CN(c4nc(-c5ccncc5F)cc(=O)n4C)CCO3)cc2)C1 |
| Active | Cn1c(N2CCN[C@@H](c3ccc(-c4ccc(C(F)(F)F)cc4)cc3)C2)nc(-c2ccncc2F)cc1=O |
| Active | Cn1c(N2CCN[C@@H](c3ccc(-c4ccc(OCC5CC5)cc4)cc3)C2)nc(-c2ccncc2F)cc1=O |
| Active | Cn1c(N2CCN[C@@H](c3ccc(-c4ccc(C#N)cc4)cc3)C2)nc(-c2ccncc2F)cc1=O |
| Active | CCOc1ccc(-c2ccc([C@H]3CN(c4nc(-c5ccncc5F)cc(=O)n4C)CCN3)cc2)cc1 |
| Active | Cn1c(N2CCO[C@@H](c3ccc(C(=O)N4CCCCC4)cc3)C2)nc(-c2ccncc2F)cc1=O |
| Active | CC(=O)N(c1ccc([C@H]2CN(c3nc(-c4ccncc4F)cc(=O)n3C)CCO2)cc1)C1CCCCC1 |
| Active | Cn1c(N2CCO[C@@H](c3ccc(NC(=O)N4CCOCC4)cc3)C2)nc(-c2ccncc2F)cc1=O |
| Active | Cn1c(N2CCO[C@@H](c3ccc(OC4CCCC4)cc3)C2)nc(-c2ccncc2F)cc1=O |
| Active | CN(c1ccc([C@H]2CN(c3nc(-c4ccncc4F)cc(=O)n3C)CCN2)cc1)C1CCCCC1 |
| Active | CN(C)C1CCN(c2ccc([C@H]3CN(c4nc(-c5ccncc5F)cc(=O)n4C)CCO3)cc2)CC1 |
| Active | Cn1c(N2CCO[C@@H](c3ccc(N4CCCC4)cc3)C2)nc(-c2ccncc2F)cc1=O |
| Active | Cn1c(N2CCO[C@@H](c3ccc(N4CCCCC4=O)cc3)C2)nc(-c2ccncc2F)cc1=O |
| Active | Cn1c(N2CCNC(c3ccc(N4CCN(C(=O)OCc5ccccc5)CC4)cc3)C2)nc(-c2ccncc2F)cc1=O (stereo not drawn) |
| Active | Cn1c(N2CCO[C@@H](c3ccc(OCCCN4CCCC4)cc3)C2)nc(-c2ccncc2F)cc1=O |
